The test system of experiment [1] is GDNF release by C6 glioma cells. In words: GDNF release by conventional ELISA in conditioned media of C6 glioma cells. The experiment is classed as cell-based. The following applies: 48 h, 10 μM compound, 0.1% DMSO vehicle, representative experiment; for fold induction at 10 µM: C6 glioma, read-out: GDNF Increase ± SEM (fold/vehicle control). An excerpt: Conventional ELISAs were used to determine compound-induced increases of GDNF concentration in conditioned media of C6 glioma cells, and have afforded increased sensitivity compared to in-situ ELISA in our hands. C6 cells were purchased from ATCC (Manassas, Va.) at passage 37 and were used between passages 41-46. This requirement for a narrow range of passages is based on an observed decrease in magnitude of GDNF release with age of the cell line, and is consistent with reported behavior of C6 cells. All incubations were conducted at 37° C. in a humidified atmosphere containing 5% CO2. GDNF release was measured for each compound in 3 independent experiments. Briefly, C6 cells were seeded into sterile 12-well culture plates (Falcon) at a density of 300,000 cells per well and were recovered for 24 h in 1mL complete growth medium (94% high glucose DMEM, 5% FBS, 1% penicillin/streptomycin). Wells were then washed with 1mL sterile DPBS and were incubated for an additional 24 h with 0.5 mL low-serum medium (98.5% high glucose DMEM, 0.5% FBS, 1% penicillin/streptomycin). On the following day, experimental compounds or DMSO vehicle control were added each to duplicate wells in an additional 0.5 mL of low-serum medium. The final concentration of each compound was 10 μM in 1mL low-serum medium containing 0.1% DMSO. Plates were incubated with compounds and vehicle control for 48 h. Conditioned media were then collected from each well and GDNF concentrations were measured in triplicate on 96-well ELISA plates using the GDNF Emax Immunoassay System from Promega (Madison, Wis.) according to the manufacturer's instructions. A Bio-Tek H1MF plate reader (Burlington, Vt.) was used to measure absorbance from the resulting colorimetric reaction. Total GDNF release for each compound was calculated from the standard curve using Microsoft Excel. Data are normalized to the vehicle control and are thus presented as fold increase of GDNF concentration in experimental wells over that of the vehicle control. Each reported compound afforded a statistically significant increase of GDNF release over the DMSO control in each of three independent experiments conducted on separate days unless otherwise noted. Statistical significance within each experiment was determined by ANOVA followed by Tukey's post-hoc analysis using GraphPad Prism. Because of the naturally high variability of GDNF release values between experiments, data presented herein are intra-assay means from a representative experiment ±intra-assay standard error of the mean (SEM) calculated from biological replicates. Cytotoxicity for each compound was below 20% as measured by LDH levels in conditioned media (Cytotox 96, Promega).
All results (Table 2) represent fold-increase of GDNF release by C6 glioma cells treated with the indicated compound for 48 hours, normalized to the vehicle control. Results are presented from a representative experiment and were determined to be statistically significant (ANOVA) compared to the vehicle control.

Experiment [2] deals with GDNF release from C6 glioma cells. Put plainly: GDNF in-situ ELISA in C6 glioma cells. Format: cell-based. To be noted: C6 glioma, 48 h, 10 μM compound, 48-hour incubation, fold over control release, corrected for pre-treatment release, read-out: Fold-Increase of GDNF Concentration. As for the experimental part: The GDNF Emax Immunoassay System from Promega (Madison, Wis.) was used to determine small molecule induced GDNF release from C6 glioma cells (ATCC, Manassas, Va.) with the following protocol. A 96-well ELISA plate was sterilized with UV for 30 minutes. The plate was coated with 100 μl/well of the anti-GDNF monoclonal antibody solution in carbonate coating buffer prepared per the manufacturer's instructions, and incubated overnight at 4° C. The antibody coating buffer was removed from the plate, which was then blocked according to the instructions in the kit. The plate was then incubated with 200 μl/well complete growth medium ([…], 5% FBS, 1% penicillin/streptomycin) for 2×1 h at rt to remove residue of the blocking buffer. After these washes were complete, fresh culture media was added to the wells. C6 cells were seeded at a density of 11,000 cells/well, with a total volume of approximately 150 μl in each well. The plate was incubated at 37° C. in an atmosphere containing 5% CO2. After 24 hours, complete growth medium was replaced with low serum medium (98.5% DMEM, 0.5% FBS, 1% penicillin/streptomycin) and the plate was incubated overnight for cellular synchronization. On the following day, cells were treated with experimental compounds for the indicated time. We used 10 μM concentrations of the tested compounds during a 48-hour incubation. Simultaneously with initiation of treatment, cells were removed from pre-treatment control wells with 5×200 μL washes of TBST (to control for basal GDNF release before the treatment period), and low-serum medium was added to these wells. 6 hours prior to stopping treatment with experimental compounds, the GDNF standard was added to the plate per the manufacturer's instructions. To terminate the treatment, the plate was washed extensively with 200 μl/well TBST washing buffer 5 times, which removed the cells. GDNF release for each well was measured according to GDNF Emax Immunoassay system instructions, and a plate reader was used to measure absorbance at 450 nm. Total GDNF release is calculated from the standard curve using Microsoft Excel. The listed values in Table 1 are presented as fold-increase of release of GDNF over control release of GDNF, corrected for pre-treatment release by subtracting from all values the mean amount of GDNF released in pre-treatment control wells. Statistical significance was determined using the Student's t-test.

As to `CCC1CC2C=CC1N(CCc1c[nH]c3cccc(F)c13)C2` (racemic) [Compound 70, exo-7-ethyl-2-(2-(4-fluoro-1H-indol-3-yl)ethyl)-2-azabicyclo[2.2.2]oct-5-ene], in experiment [1], the fold induction at 10 µM turned out to be 15.8 ± 0.65.

For the molecule `CCC1CC2C=CC1N(CCc1nc3ccccc3[nH]1)C2` (racemic) [Compound 12l, endo-2-[2-(1H-benzo[d]imidazol-2-yl)ethyl]-7-ethyl-2-azabicyclo[2.2.2]oct-5-ene], the fold induction at 10 µM in experiment [2] came out at 1.5.

Consider `C1=CC2CCC1CN2Cc1c[nH]c2ccccc12` (racemic) [Compound 18b, 2-[(1H-indol-3-yl)methyl]-2-azabicyclo[2.2.2]oct-5-ene], for which the fold induction at 10 µM in experiment [2] worked out at 1.6 ± 0.1.

Turning to `C1=CC2CCC1CN2CCc1c[nH]c2ccccc12` (racemic) [Compound 18a, 2-[2-(1H-indol-3-yl)ethyl]-2-azabicyclo[2.2.2]oct-5-ene], the fold induction at 10 µM in experiment [2] was determined as 1.6.

Take `CCC1CC2C=CC1N(CCc1c[nH]c3c(F)cccc13)C2` (racemic) [Compound 89, endo-7-ethyl-2-(2-(7-fluoro-1H-indol-3-yl)ethyl)-2-azabicyclo[2.2.2]oct-5-ene]: the “GDNF Increase ± SEM (fold/vehicle control)” value in experiment [1] was 14.71 ± 0.11 fold/vehicle control.

For `CCC1CC2C=CC1N(CCc1csc3ccccc13)C2` (racemic) [Compound 90, endo-2-(2-(benzo[b]thiophen-3-yl)ethyl)-7-ethyl-2-azabicyclo[2.2.2]oct-5-ene], the “GDNF Increase ± SEM (fold/vehicle control)” value in experiment [1] was 11.86 ± 0.01 fold/vehicle control.

For the molecule `C1=CC2C(Cc3ccccc3)CC1CN2CCc1c[nH]c2ccccc12` (racemic) [Compound 77, exo-2-(2-(1H-indol-3-yl)ethyl)-7-benzyl-2-azabicyclo[2.2.2]oct-5-ene], the “GDNF Increase ± SEM (fold/vehicle control)” value in experiment [1] is reported as 13.22 ± 0.08 fold/vehicle control.

For the molecule `Fc1ccc2[nH]cc(CCN3CC4C=CC3C(Cc3ccccc3)C4)c2c1` (racemic) [Compound 85, exo-7-benzyl-2-(2-(5-fluoro-1H-indol-3-yl)ethyl)-2-azabicyclo[2.2.2]oct-5-ene], the fold induction at 10 µM in experiment [1] was determined as 13.2 ± 2.03.

For `C1=CC2C(Cc3ccccc3)CC1CN2CCc1c[nH]c2ccccc12` (racemic) [Compound 76, endo-2-(2-(1H-indol-3-yl)ethyl)-7-benzyl-2-azabicyclo[2.2.2]oct-5-ene], the fold induction at 10 µM in experiment [1] was 12.8 ± 0.85.

On to `CCC1CC2C=CC1N(CCc1c[nH]c3cc(F)ccc13)C2` (racemic) [Compound 71, exo-7-ethyl-2-(2-(6-fluoro-1H-indol-3-yl)ethyl)-2-azabicyclo[2.2.2]oct-5-ene], for which the fold induction at 10 µM in experiment [1] is 16.5 ± 0.3.

`C1=CC2C(COCc3ccccc3)CC1CN2CCc1c[nH]c2ccccc12` (racemic) [Compound 86, endo-2-(2-(1H-indol-3-yl)ethyl)-7-(benzyloxymethyl)-2-azabicyclo[2.2.2]oct-5-ene]: the fold induction at 10 µM in experiment [1] amounted to 13.8 ± 2.01.

For `CCC1CC2C=CC1N(CCc1cn(S(=O)(=O)c3ccc(C)cc3)c3ccccc13)C2` (racemic) [Compound 82, exo-7-ethyl-2-(2-(1-tosyl-1H-indol-3-yl)ethyl)-2-azabicyclo[2.2.2]oct-5-ene], the fold induction at 10 µM in experiment [1] came to 13.6 ± 1.41.

On to `CCCCC1CC2C=CC1N(CCc1c[nH]c3ccccc13)C2` (racemic) [Compound 84, exo-2-(2-(1H-indol-3-yl)ethyl)-7-butyl-2-azabicyclo[2.2.2]oct-5-ene], for which, in experiment [1], the “GDNF Increase ± SEM (fold/vehicle control)” value is listed as 12.65 ± 0.66 fold/vehicle control.

For the molecule `CCCC1CC2C=CC1N(CCc1c[nH]c3ccc(F)cc13)C2` (racemic) [Compound 79, exo-2-(2-(5-fluoro-1H-indol-3-yl)ethyl)-7-propyl-2-azabicyclo[2.2.2]oct-5-ene], in experiment [1], the fold induction at 10 µM stood at 14.6 ± 0.21.

For “6-ethyl-2-(2-(5-fluoro-1H-indol-3-yl)ethyl)-2-azabicyclo[2.2.2]oct-5-ene [Compound 91]”, the “GDNF Increase ± SEM (fold/vehicle control)” value in experiment [1] is recorded as 13.61 ± 0.62 fold/vehicle control.

Consider `CCCC1CC2C=CC1N(CCc1c[nH]c3ccccc13)C2` (stereo not drawn) [Compound 74, exo-2-(2-(1H-indol-3-yl)ethyl)-7-propyl-2-azabicyclo[2.2.2]oct-5-ene], for which the fold induction at 10 µM in experiment [1] is 7.11 ± 1.17.

For `CCCC1CC2C=CC1N(CCc1c[nH]c3ccc(F)cc13)C2` (racemic) [Compound 78, endo-2-(2-(5-fluoro-1H-indol-3-yl)ethyl)-7-propyl-2-azabicyclo[2.2.2]oct-5-ene], the “GDNF Increase ± SEM (fold/vehicle control)” value in experiment [1] is 14.39 ± 0.51 fold/vehicle control.

Consider `CCCC1CC2C=CC1N(CCc1c[nH]c3ccccc13)C2` (racemic) [Compound 75, endo-2-(2-(1H-indol-3-yl)ethyl)-7-propyl-2-azabicyclo [2.2.2]oct-5-ene], for which the fold induction at 10 µM in experiment [1] is 14.8 ± 0.85.

With `CCC1CC2C=CC1N(CCc1csc3ccccc13)C2` (racemic) [Compound 73, exo-2-(2-(benzo[b]thiophen-3-yl)ethyl)-7-ethyl-2-azabicyclo[2.2.2]oct-5-ene], in experiment [1], the fold induction at 10 µM was 9.87 ± 0.22.

For the molecule `CCC1CC2C=CC1N(CCc1c[nH]c3cccc(F)c13)C2` (racemic) [Compound 87, endo-7-ethyl-2-(2-(4-fluoro-1H-indol-3-yl)ethyl)-2-azabicyclo[2.2.2]oct-5-ene], the “GDNF Increase ± SEM (fold/vehicle control)” value in experiment [1] is on record as 10.87 ± 0.84 fold/vehicle control.

For the molecule `CCC1CC2C=CC1N(CCc1c[nH]c3c(F)cccc13)C2` (racemic) [Compound 69, exo-7-ethyl-2-(2-(7-fluoro-1H-indol-3-yl)ethyl)-2-azabicyclo [2.2.2]oct-5-ene], the fold induction at 10 µM in experiment [1] is 12.13 ± 0.01.

For `CCC1CC2C=CC1N(CCCc1c[nH]c3ccccc13)C2` (stereo not drawn) [Compound 81, exo-2-(3-(1H-indol-3-yl)propyl)-7-ethyl-2-azabicyclo[2.2.2]oct-5-ene], the “GDNF Increase ± SEM (fold/vehicle control)” value in experiment [1] was found to be 12.55 ± 0.05 fold/vehicle control.

On to `CCCCC1CC2C=CC1N(CCc1c[nH]c3ccccc13)C2` (racemic) [Compound 83, endo-2-(2-(1H-indol-3-yl)ethyl)-7-butyl-2-azabicyclo[2.2.2]oct-5-ene], for which, in experiment [1], the fold induction at 10 µM amounted to 12.8 ± 0.5.

With `CCC1CC2C=CC1N(CCc1c[nH]c3ccc(F)cc13)C2` (racemic) [Compound 72, exo-7-ethyl-2-(2-(5-fluoro-1H-indol-3-yl)ethyl)-2-azabicyclo[2.2.2]oct-5-ene], the fold induction at 10 µM in experiment [1] was 16.2 ± 0.41.

For `C1=CC2C(Cc3cccnc3)CC1CN2CCc1c[nH]c2ccccc12` (racemic) [Compound 80, exo-2-(2-(1H-indol-3-yl)ethyl)-7-(pyridin-3-ylmethyl)-2-azabicyclo[2.2.2]oct-5-ene], in experiment [1], the fold induction at 10 µM was determined as 7.02 ± 1.31.

The record behind these values is US9988377B2, “Small molecule inducers of GDNF as potential new therapeutics for neuropsychiatric disorders” (THE TRUSTEES OF COLUMBIA UNIVERSITY IN THE CITY OF NEW YORK, priority 2011, dated 2018).
